Read-outs that look alike come from different tables or passages of the source.
How the values were obtained:
[1] = system: Key Grass and Sedge Weeds as well as Grass Crops; test: Post-emergent Test II herbicidal activity (Table 6); type: in vivo; conditions: post-emergence, 336 h; for pest or weed control at 70 g/ha: 70 g ai/ha; for pest or weed control at 140 g/ha: 140 g ai/ha
Outline: (§1)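 Spray rates: a highest rate plus ½×, ¼×, ⅛×, 1/16×, all delivered at 187 L/ha to plants at the first–second true leaf stage. Readout is a visual percent injury score at 14 d, where 100 means complete kill.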

[2] = system: Key Broadleaf Weed and Crop Species; test: Post-emergent Test II herbicidal activity (Table 5); type: in vivo; conditions: post-emergence, 336 h, 14 days after application; for pest or weed control at 70 g/ha: application rate 70 g ai/ha; for pest or weed control at 140 g/ha: application rate 140 g ai/ha
Outline: as §1

[3] = CYPES: yellow nutsedge (Cyperus esculentus), read-out: Visual Growth Reduction (%) 14 Days After Application, CYPES
[4] = DIGSA: crabgrass (Digitaria sanguinalis), read-out: Visual Growth Reduction (%) 14 Days After Application, DIGSA
[5] = ECHCG: barnyardgrass (Echinochloa crus-galli), read-out: Visual Growth Reduction (%) 14 Days After Application, ECHCG
[6] = ORYSA: rice (Oryza sativa), crop, read-out: Visual Growth Reduction (%) 14 Days After Application, ORYSA
[7] = SETFA: giant foxtail (Setaria faberi), read-out: Visual Growth Reduction (%) 14 Days After Application, SETFA
[8] = SORVU: grain sorghum (Sorghum vulgare), read-out: Visual Growth Reduction (%) 14 Days After Application, SORVU
[9] = TRZSS (wheat, Triticum aestivum), crop, read-out: Visual Growth Reduction (%) 14 Days After Application, TRZSS
[10] = ZEAMX: maize, corn (Zea mays), crop, read-out: Visual Growth Reduction (%) 14 Days After Application, ZEAMX
[11] = ABUTH: velvetleaf (Abutilon theophrasti), read-out: Visual Growth Reduction (%) 14 Days After Application, ABUTH
[12] = BRSNN: oilseed-rape, canola (Brassica napus), read-out: Visual Growth Reduction (%) 14 Days After Application, BRSNN
[13] = CHEAL: lambsquarters (Chenopodium album), read-out: Visual Growth Reduction (%) 14 Days After Application, CHEAL
[14] = EPHHL: wild poinsettia (Euphorbia heterophylla), read-out: Visual Growth Reduction (%) 14 Days After Application, EPHHL
[15] = HELAN: sunflower (Helianthus annuus), read-out: Visual Growth Reduction (%) 14 Days After Application, HELAN
[16] = VIOTR: wild pansy (Viola tricolor), read-out: Visual Growth Reduction (%) 14 Days After Application, VIOTR

COC(=O)c1nc(-c2ccc(C#N)cc2F)cc(N)c1Cl [Compound 16]
pest or weed control at 70 g/ha [1, 3]: 95 to 100%
pest or weed control at 140 g/ha [1, 3]: 95 to 100%
pest or weed control at 70 g/ha [1, 4]: 60 to 74%
pest or weed control at 140 g/ha [1, 4]: 75 to 84%
pest or weed control at 70 g/ha [1, 5]: 75 to 84%
pest or weed control at 140 g/ha [1, 5]: 95 to 100%
pest or weed control at 70 g/ha [1, 6]: 0 to 29%
pest or weed control at 140 g/ha [1, 6]: 0 to 29%
pest or weed control at 70 g/ha [1, 7]: 45 to 59%
pest or weed control at 140 g/ha [1, 7]: 60 to 74%
pest or weed control at 70 g/ha [1, 8]: 60 to 74%
pest or weed control at 140 g/ha [1, 8]: 60 to 74%
pest or weed control at 70 g/ha [1, 9]: 30 to 44%
pest or weed control at 140 g/ha [1, 9]: 45 to 59%
pest or weed control at 70 g/ha [1, 10]: 85 to 94%
pest or weed control at 140 g/ha [1, 10]: 85 to 94%
pest or weed control at 70 g/ha [2, 11]: 85 to 94%
pest or weed control at 140 g/ha [2, 11]: 95 to 100%
pest or weed control at 140 g/ha ([2]; AMARE: redroot pigweed (Amaranthus retroflexus), read-out: Visual Growth Reduction (%) 14 Days After Application, AMARE): 95 to 100%
pest or weed control at 70 g/ha [2, 12]: 0 to 29%
pest or weed control at 140 g/ha [2, 12]: 0 to 29%
pest or weed control at 70 g/ha [2, 13]: 95 to 100%
pest or weed control at 140 g/ha [2, 13]: 95 to 100%
pest or weed control at 70 g/ha [2, 14]: 95 to 100%
pest or weed control at 140 g/ha [2, 14]: 95 to 100%
pest or weed control at 70 g/ha [2, 15]: 95 to 100%
pest or weed control at 140 g/ha [2, 15]: 95 to 100%
pest or weed control at 70 g/ha [2, 16]: 30 to 44%
pest or weed control at 140 g/ha [2, 16]: 30 to 44%

— patent publication US9113629B2, “4-amino-6-(4-substituted-phenyl)-picolinates and 6-amino-2-(4-substituted-phenyl)-pyrimidine-4-carboxylates and their use as herbicides” (DOW AGROSCIENCES LLC, priority 2013, dated 2015)
